Source: ChEMBL document CHEMBL3804809, “Fatty Acid Transport Proteins: Targeting FATP2 as a Gatekeeper Involved in the Transport of Exogenous Fatty Acids” (Medchemcomm, 2016)

Assays:
[1] = molecular target: Long-chain fatty acid transport protein 2 (Homo sapiens, UniProt O14975); test: Inhibition of FATP2 in human HepG2 cells assessed as decrease in fatty acid transport after 5 mins by trypan blue dye based fluorescence quenching method; assay type: cell-based
Mus musculus [2] = test: Upregulation of FATP2 mRNA level in C57BL mouse small intestine at 0.1% administered through diet for 3 days by RT-PCR analysis; assay type: functional
Mus musculus [3] = test: Downregulation of FATP2 mRNA level in […] null C57BL mouse small intestine at 0.1% administered through diet for 3 days by RT-PCR analysis; assay type: functional
Mus musculus [4] = test: Upregulation of FATP2 mRNA level in C57BL mouse small intestine at 0.01% administered through diet for 3 days by RT-PCR analysis; assay type: functional
Mus musculus [5] = test: Downregulation of FATP2 mRNA level in […] null C57BL mouse small intestine at 0.01% administered through diet for 3 days by RT-PCR analysis; assay type: functional
Mus musculus [6] = test: Inhibition of 3C18-oleate absorption in tyloxapol-treated C57BL/6 mouse plasma at 300 mg/kg administered through gavage for 1 hr followed by 3C18-oleate addition measured after 0.5 to 6 hrs by LC/MS-MS analysis; assay type: functional; settings: C57BL/6, Plasma, po

Sequence of Long-chain fatty acid transport protein 2 (O14975 whole entry, looked up): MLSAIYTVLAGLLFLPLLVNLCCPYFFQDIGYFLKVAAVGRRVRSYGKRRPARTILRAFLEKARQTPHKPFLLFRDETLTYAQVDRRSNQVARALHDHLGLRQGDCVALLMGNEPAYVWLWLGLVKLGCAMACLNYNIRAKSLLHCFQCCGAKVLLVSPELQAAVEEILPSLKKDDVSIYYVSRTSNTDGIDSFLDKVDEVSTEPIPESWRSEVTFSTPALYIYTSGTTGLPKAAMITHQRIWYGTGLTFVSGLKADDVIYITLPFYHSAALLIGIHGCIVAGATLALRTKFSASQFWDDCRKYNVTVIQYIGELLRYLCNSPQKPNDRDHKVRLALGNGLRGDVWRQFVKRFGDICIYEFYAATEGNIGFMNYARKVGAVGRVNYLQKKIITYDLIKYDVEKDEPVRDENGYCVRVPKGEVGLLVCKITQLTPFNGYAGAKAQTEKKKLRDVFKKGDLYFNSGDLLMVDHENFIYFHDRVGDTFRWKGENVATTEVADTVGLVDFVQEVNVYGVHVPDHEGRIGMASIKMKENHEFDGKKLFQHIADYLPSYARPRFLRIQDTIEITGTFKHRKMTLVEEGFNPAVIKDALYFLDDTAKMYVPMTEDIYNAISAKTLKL

SMILES: O=c1cc(-c2ccc([N+](=O)[O-])cc2)[nH]c2c(-c3ccc(Cl)cc3)c(Cc3ccccc3)nn12
- IC50 [1]: 6.3 µM

SMILES: Cc1cccc(Nc2cc(Cl)nc(SCC(=O)O)n2)c1C [PIRINIXIC ACID]
- fold change (FC) (Mus musculus [2]): 4
- fold change (FC) (Mus musculus [3]): 2

SMILES: CC(C)(Sc1ccc(CCN(CCCCC2CCCCC2)C(=O)NC2CCCCC2)cc1)C(=O)O [GW7647]
- fold change (FC) (Mus musculus [4]): 4
- fold change (FC) (Mus musculus [5]): 2

SMILES: O=C1Nc2ccc(Br)cc2C12NN=C(c1ccccc1)S2 (configuration not stated)
- inhibition in vivo at 300 mg/kg (Mus musculus [6]): 80%
- IC50 [1]: 6.7 µM
